IC50 data for seven molecules are collected here from US11478460B2, “Diaryl substituted 6,5-fused ring compounds as C5aR inhibitors” (CHEMOCENTRYX, INC., priority 2017, dated 2022).

Sequence of C5aR (P21730 whole entry): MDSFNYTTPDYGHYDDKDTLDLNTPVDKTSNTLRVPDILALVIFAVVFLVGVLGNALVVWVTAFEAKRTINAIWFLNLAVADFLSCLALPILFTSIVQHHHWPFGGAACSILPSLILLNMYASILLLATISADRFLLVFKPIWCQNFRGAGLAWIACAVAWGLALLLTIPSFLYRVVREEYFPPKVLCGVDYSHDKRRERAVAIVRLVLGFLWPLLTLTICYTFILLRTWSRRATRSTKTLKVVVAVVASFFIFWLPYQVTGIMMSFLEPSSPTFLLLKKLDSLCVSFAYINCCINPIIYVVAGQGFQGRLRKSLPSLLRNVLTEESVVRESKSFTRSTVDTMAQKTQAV

In this test the target is C5aR (Homo sapiens (Human), UniProt P21730). The test is described as follows: Chemotaxis assay using U937 cells (C5aR mediated migration). It is filed as cell-based. Particulars: read-out: Mig IC50. A digest of the protocol:
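U937 monocytic cells, pretreated overnight with 0.5 mM cyclic AMP, placed at 100,000 cells in the upper well above 5 μm polycarbonate filters. Lower well held 0.03 nM C5a plus compound in HBSS/1% FBS; after 1.5 h at 37° C migrated cells counted directly or by CyQuant, giving IC50.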
One may read the IC50 as the concentration needed to halve the response being measured. Regarding `CCc1cccc(CC)c1-n1nc2c(c1-c1cc(F)c(NC(N)=O)cc1F)CN(Cc1ccc(C(F)(F)F)cc1)C(C)(C)C2` [Example 1.017], the IC50 was at most 5 nM. For `Cc1cccc(OCC(C)C)c1-n1nc2c(c1-c1cc(F)c(NC(N)=O)cc1F)CN(c1ncc(Cl)cc1F)CC2` [Example 1.173], the IC50 is at most 5 nM. Take `Cc1cccc(OCC(C)C)c1-n1nc2c(c1-c1ccc(NC(N)=O)cc1)CN(c1ccc(C(F)(F)F)cc1C(F)(F)F)CC2` [Example 1.343]: the IC50 is at most 5 nM. Turning to `CCc1cccc(CC)c1-n1nc2c(c1-c1cc(F)c(NC(N)=O)cc1F)CN(CC1(C)COC1)C(C)(C)C2` [Example 1.010], the IC50 lay in the range of 5 to 50 nM.

Regarding `Cc1cccc(OCC(C)C)c1-n1nc2c(c1-c1ccc(NC(N)=O)cc1Cl)CN(c1ncc(C(F)(F)F)cc1F)CC2` [Example 1.269], the IC50 is at most 5 nM. Turning to `COc1cccc(C)c1-n1nc2c(c1-c1ccc(NC(C)C)cc1)CN(c1ccccc1C(C)C)CC2` [Example 1.485], the IC50 was in the range of 50 to 500 nM. In the case of `Cc1cccc(OCC(C)C)c1-n1nc2c(c1-c1ccc(NC(N)=O)cc1)CN(c1ccc(C(F)(F)F)cc1Cl)CC2` [Example 1.375] it was 5 to 50 nM.
